We go through seven compounds from patent US4980343A, “Aminooxodihydroisoindoloquinazoline carcinostatic agents” (Bayer Aktiengesellschaft, priority 1989, dated 1990).

The subject of data set [1] is E. coli Neumann. Description: minimal inhibitory concentrations (MICs) by agar dilution method. The class given is cell-based. As to the method:
The minimal inhibitory concentrations (MICs) were determined by agar dilution method. Series of agar plates with Iso-Sensitest agar (Oxoid) were prepared which contained the test substances at twofold increasing concentrations. The agar plates were inoculated by using a multipoint inoculator (Denley). For this purpose, overnight cultures of the bacterial test strains were diluted appropriately so that each inoculation point contained approx. 10^4 cells. The inoculated agar plates were incubated at 37° C. and bacterial growth was read after 20 hours.
For orientation: Agar dilution tests growth on a series of plates holding different concentrations.

Data set [2] relates to E. coli Neumann. As to the kind of experiment: therapeutic efficacy: survival of female CF1 mice infected intraperitoneally with E. coli Neumann. Particulars: for survival of the animals (number of 10 mice): single dose 30 min. after infection, until sixth day. In kind it is in vivo. As to the method: To measure the therapeutic efficacy, 10 female CF1 mice each group were infected by intraperitoneal injection of 3×10^7 cells of E. coli Neumann. For treatment, one single dose of drug was given intravenously 30 min. after the infection. The survival of the animals was recorded daily until the sixth day after infection: […]

The nature of data set [3]: stability of B in the presence of peptidases or human plasma. In kind it is in vitro ADME. The conditions noted are these: not cleaved back to A.
Data set [4] is described as follows: solubility in water and water containing solvents. Particulars: for solubility: water.
Data set [5] can be described thus: stability of 4, 6 or 12 in aqueous buffered solutions (μ = 0.15). In kind it is physicochemical. Here is the method:
The hydrolysis of 4, 6 or 12 in aqueous buffered solutions at various pH and at an ionic strength of 0.15 (NaCl) were measured by analyzing aliquots at appropriate intervals using HPLC. In the HPLC analysis both the disappearance of 4, 6 or 12 and the appearance of 1 were monitored. Rate constants were calculated from the first-order plots of the disappearance of 4, 6 or 12 versus time.

Data set [6] in a line: stability of 4, 6 and 12 in human plasma at 37° C. In kind it is in vitro ADME. The conditions noted are these: for hydrolysis to 1: human plasma; for half-life: plasma. As to the method:
(§1) A solution of approximately 2.0 mg of 4, 6 or 12 in 100 μl of water was added to 2 ml of either human or mice plasma. The resulting solution was placed in water bath at 37° C. Samples were withdrawn at appropriate time intervals and proteins were precipitated with 250 μl of acetonitrile, vortexed for 30 sec., then centrifuged for 10 min at 2200 rpm. […] Apparent first-order rate constants were obtained by plotting the disappearance the derivatives 4, 6 or 12 versus time on semilogarithmic plot and the results are shown in table 12.

Data set [7] is described as follows: stability of 4, 6 and 12 in mice plasma at 37° C. The class given is in vitro ADME. Particulars: for hydrolysis to 1: mice plasma; for kobs / half-life: mice, heparin; for half-life: mouse, plasma. Here is the method:
as §1

Data set [8] can be described thus: hydrolysis of 14 and 4a in human plasma at 37.0° C. The class given is in vitro ADME. Here is the method:
(§2) The hydrolysis of 14 in human plasma was studied. A solution containing 2.0 mg of 14 in 200 μl of water was mixed with 2 ml of human plasma (sodium citrate was used as anticoagulant). The resulting mixture was placed in water bath at 37.0° C. Samples were withdrawn at appropriate time intervals and proteins were precipitated with 250 μl of acetonitrile, vortexed for 30 sec, the centrifuged for 15 min at 2200 rpm. A 100 μl sample of the supernatent was mixed with 250 μl of H2 O and the resulting solution was analyzed by HPLC. […] The chemical hydrolysis of 14 (5.5×10^-5 M) in 0.05M phosphate buffer pH 7.4 and ionic strength of 0.15M (NaCl) at 37.0° C. was studied. Samples were withdrawn and analyzed at appropriate time intervals.

Data set [9] is described as follows: chemical hydrolysis of 14 in 0.05M phosphate buffer pH 7.4 at 37.0° C. The class given is physicochemical. The conditions noted are these: 5.5×10^-5 M, 0.05M phosphate pH 7.4, ionic strength 0.15M (NaCl). As to the method:
as §2

Where [10] appears, read: Acetate (0.05M), 25° C., pH 5.0, initial conc. 0.024 (4, 12), 0.018 (6) mg/ml.
Where [11] appears, read: Phosphate (0.05M), 37° C., pH 7.4, initial conc. 0.02 mg/ml.
Setting [12] is: acetate buffer (0.05m), pH 5, Acetate (0.05M), 25° C., pH 5.0, initial conc. 0.024 (4, 12), 0.018 (6) mg/ml, 6 and 12 estimated values (*).
[13] abbreviates: phosphate buffer (0.05m), pH 7.4, Phosphate (0.05M), 25° C., pH 7.4, initial conc. 0.02 mg/ml, 4 estimated value (*).
Where [14] appears, read: phosphate buffer (0.05m), pH 7.4, Phosphate (0.05M), 37° C., pH 7.4, initial conc. 0.02 mg/ml.
Where [15] appears, read: water, pH 4.5, Water, 25° C., initial conc. 10.0 mg/ml, pH 4.5 (4), 4.31 (6), 4.54 (12), estimated values (*).
[16] abbreviates: water, pH 5.9, Water, 25° C., initial conc. 0.1 mg/ml, pH 5.9 (4), 5.46 (6), 6.1 (12), estimated values (*).
Setting [17] is: Phosphate (0.05M), 25° C., pH 7.4, initial conc. 0.02 mg/ml.
The mark [18] stands for this setting: Water, 25° C., initial conc. 0.1 mg/ml, pH 5.46 (6), 6.1 (12).
Setting [19] is: Water, 25° C., initial conc. 10.0 mg/ml, pH 4.31 (6), 4.54 (12).
Setting [20] is: concentration of obtainable aqueous solutions, hydrochloric acid salts (Example 5).

The structures appear in SMILES notation. ≈ marks a conversion by molar mass, not a printed value. Entries after “also recorded” stand apart in the source; their conditions may differ. Counter-ions that a name gives are not always drawn.

What is called MIC is the lowest concentration that inhibits growth of the organism. A high value points to weaker potency. The compound `CC(N)C(=O)N1CCN(c2cc3c(cc2F)c(=O)c(C(=O)O)cn3C2CC2)CC1` (centres unmarked) [B] displayed an MIC against E. coli Neumann [1] (Escherichia coli, E. coli Neumann, agar dilution, Iso-Sensitest agar, 37° C., 20 hours) of 0.5 µg/mL (≈ 1.24 µM). In the data set on E. coli Neumann [1] (in words), the “effectiveness against E. coli Neumann in vitro” value is reported as “only poorly effective”. For the same compound, the “survival of the animals (number of 10 mice)” value in the data set with E. coli Neumann [2] (0.06 mg/kg i.v.) is 0; with E. coli Neumann [2] (0.25 mg/kg i.v.), 1; with E. coli Neumann [2] (0.5 mg/kg i.v.) it was 1. Further, in the data set on E. coli Neumann [2] (in words), the “effectiveness against E. coli Neumann in vivo” value is “only poorly effective”. For the same compound, the “stability in the presence of peptidases or human plasma” value in [3] is recorded as “stable”.

As to `Nc1ccc2c(c1)CN1C(=O)c3ccccc3C1=N2` [Compound 1, aminooxodihydroisoindoloquinazoline], the “solubility in water (in words)” value in data set [4] (water containing solvents) is given as “only poorly soluble; also recorded: nearly insoluble”.

The half-life is the time in which the quantity being followed falls by half. The term solubility denotes the dissolved amount per volume that the medium holds. With `C[C@H](N)C(=O)Nc1ccc2c(c1)CN1C(=O)c3ccccc3C1=N2` [Compound 4, N-l-alanyl-AQ-monohydrochloride], the kobs worked out at 0.0016 h⁻¹ in data set [5] (setting [10]); 0.0044 h⁻¹ in [5] (setting [11]); 0.025 min⁻¹ in data set [6] (human 1, citrate); 0.022 min⁻¹ in data set [6] (human 2, citrate); 0.033 min⁻¹ in [7]. Also, the half-life in data set [5] (setting [12]) was 17.8 days; in data set [5] (setting [13]), > 8.33 days; in data set [5] (setting [14]) it was 6.58 days; in data set [5] (setting [15]), > 20 days; in data set [5] (setting [16]) it was > 20 days; in [6] (human, human 1, citrate), 0.46 h. Moreover, the half-life stood at 0.512 h in data set [6] (human, human 2, citrate) and 0.355 h in data set [7]. Moreover, the “hydrolysis to 1” value in [6] and in [7] was “quantitative hydrolysis” in each case. Also, the solubility in data set [4] (solubility in water, hydrochloric acid salt, water (Example 5)) was > 25 mg/mL.

Consider `C[C@H](N)C(=O)Nc1ccc2c(c1)CN1C(=O)c3ccccc3C1=N2` [Compound 4a, N-l-alanyl-AQ], for which, in [8] (human plasma, FIG. 1, 4a formed from 14), the half-life was ~0.333 h.

As for `CC(C)C[C@H](N)C(=O)Nc1ccc2c(c1)CN1C(=O)c3ccccc3C1=N2` [Compound 6, N-l-leucine derivative of AQ], the kobs in data set [5] (setting [10]) was 0.0011 h⁻¹; in [5] (setting [17]), 0.00411 h⁻¹; in data set [5] (setting [11]) it was 0.0086 h⁻¹; in data set [5] (setting [18]), 0.00061 h⁻¹; in [5] (setting [19]), 0.000146 h⁻¹; in [6] (human, citrate), 0.0057 min⁻¹. Besides, the kobs in data set [7] was 0.0185 min⁻¹. Besides, the half-life was 26 days in data set [5] (setting [12]); 7.03 days in data set [5] (setting [13]); 3.36 days in data set [5] (setting [14]); 198 days in data set [5] (setting [15]); 47 days in [5] (setting [16]); 2.02 h in [6] (human, citrate). In data set [7], the half-life stood at 0.623 h. The “hydrolysis to 1” value in data set [6] and in [7] was “quantitative hydrolysis” throughout. In addition, the solubility in [4] (setting [20]) was > 25 mg/mL.

Regarding `NCCCC[C@H](N)C(=O)Nc1ccc2c(c1)CN1C(=O)c3ccccc3C1=N2` [Compound 12, N-l-lysine dihydrochloride derivative of AQ], the kobs was 0.00115 h⁻¹ in data set [5] (setting [10]); 0.00258 h⁻¹ in data set [5] (setting [17]); 0.0103 h⁻¹ in [5] (setting [11]); 0.00078 h⁻¹ in data set [5] (setting [18]); 0.000267 h⁻¹ in [5] (setting [19]); 0.005 min⁻¹ in [6] (human, citrate). The same compound returned a kobs in [7] of 0.0048 min⁻¹. Also, the half-life was 25 days in data set [5] (setting [12]); 11.2 days in data set [5] (setting [13]); 2.8 days in [5] (setting [14]); 108 days in data set [5] (setting [15]); 37 days in data set [5] (setting [16]); 2.31 h in [6] (human, citrate). In addition, the half-life in data set [7] is 2.43 h. For the same compound, the “hydrolysis to 1” value in data set [6] and in data set [7] was “quantitative hydrolysis” in each case. Further, the solubility in [4] (setting [20]) was > 25 mg/mL; in data set [4] (water solubility, dihydrochloride, freeze dried (Example 3)) it was > 20 mg/mL.

In the case of `C[C@H](NC(=O)CN)C(=O)Nc1ccc2c(c1)CN1C(=O)c3ccccc3C1=N2` [Compound 14, L-Gly-Ala-derivative of AQ], in data set [8] (human plasma (citrate), 2.0 mg of 14 in 200 μl water + 2 ml plasma, read-out: half life of hydrolysis of 14 to 4a), the half-life was 0.233 ± 0.0167 h. In addition, the half-life at 55 µM in [9] was 60 h.
